Experimental data: publication PMC5907308, “21st Brazilian Diabetes Society Congress” (Diabetology & Metabolic Syndrome, 2018)
Read-outs that look alike come from different tables or passages of the source.

Tests used:
OVX female Swiss mice = assay type: in vivo, mouse
Procedure: (§1) Methods: Female Swiss mice with 80–100 days of life were OVX, after 2 weeks females in anestrous were distributed in the control groups (CTL): fed with normolipid diet and water containing 0.01% ethanol (vehicle); BPA control (CBPA): normolipid diet and water containing 0.01% ethanol and 1 μg/mL BPA; HFD: diet containing 36 g% fat and vehicle; and (HBPA): HFD and BPA. After 3 months, glucose tolerance test (GTT) and islet isolation for insulin secretion were performed (CEUA UFRJ-Macaé: MAC035 approval). Data were analyzed for the distribution of normality (Shapiro–Wilk), followed by analysis of variances: parametric (ANOVA followed by Newman–Keuls) or non-parametric (Kruskal–Wallis followed by Dunns; P < 0.05).

[1] = tested on: islets isolated from OVX female Swiss mice; assay: Glucose-stimulated insulin secretion of isolated islets; assay type: cell-based, mouse; conditions: 2.8 mM glucose; HFD islets 1.2 ± 0.14
Procedure: as §1

diabetic pregnant women = assay type: in vivo, human; conditions: 2009-2016, medical records
Procedure: Methods: We analyzed the medical records of the diabetic pregnant women who were attended at the Endocrinology Clinic of Hospital do Servidor Público Municipal between 2009 and 2016. The incidence of fetal macrosomia, prematurity, respiratory distress, hospitalization in intensive care unit and abortion were analyzed and correlated to the glycemic control. Good glycemic control was defined by the presence of at least 80% of capillary blood glucose within the following range: pre-prandial < 90 mg/dL, 1 h postprandial < 140 mg/dL, 2 h postprandial < 120 mg/dL

patient with glucagonoma = assay: Case report: glucagonoma; assay type: in vivo, human; conditions: zinc vitamin supplement and Octreotide
Text: Case report: patient four, hospitalized in 2015 for investigation of cholestatic syndrome associated with pancreatic mass of 51x48 mm evidenced on abdominal tomography (15/05/03). The patient underwent corpocaudal pancreatectomy and total splenectomy, with free surgical margins, but with angiolymphatic invasion. […] The patient received chemotherapy with gemcitabine which was replaced by Folfirinox. However, after 1 year without medical follow-up, they returned presenting weight loss, cutaneous disseminated lesions in the upper and lower limbs (Fig. 1), trunk and genitalia, angular cheilitis, macroglossia, deep venous thrombosis of the lower limbs and glycemia above 400 mg/dl. Figure 1: Cutaneous disseminated lesions It was used several antimicrobial regimens to treat skin lesions, unsuccessful, and performed biopsies of the skin, that diagnosis psoriasiform spongious dermatitis. The case was referred to the endocrinology departament and we did the diagnosis of glucagonoma, based on the symptoms and skin lesions, confirmed by pancreatic glucagon levels of 722 pg/ml (reference value < 208 pg/ml). […] We considered diagnosis hypothesis of adrenal insufficiency and after offered hydrocortisone, it was observed improvement in their condition in 24 h.

[2] = tested on: patient with mucormycosis; assay: Oral mucormycosis in a diabetic patient, case report; assay type: in vivo, human; conditions: treated for 10 days
Text: Case presentation: person, admitted with diabetic ketoacidosis. On the 5th day of hospitalization, they complained of odynophagia, without other symptoms. On examination of the oral cavity, was found an ulcerated, infiltrative, whitish, and non-removable lesion in the soft palate (Fig. 1). No abnormalities were found in laboratory tests.

[3] = tested on: patients with long-standing T1DM; assay: Mixed-meal tolerance test + oral 5 mg glibenclamide, ultrasensitive C-peptide; assay type: in vivo, human; conditions: 4 of 6 T1DM patients
Procedure: Fasting blood was taken for measurement of C-peptide (ELISA; Mercodia® (Uppsala, Sweden; cat.Nº10-1141-01). Thirty one patients (24,5%) had C-peptide > 10 pmol/L or 0.03 ng/ml. Six patients were randomly recruited to undergo a mixed-meal tolerance test + oral 5 mg glibenclamide.

patients with T2D = assay: Network meta-analysis Gla-300 vs IDeg (inputs of the cost-effectiveness model); assay type: in vivo, human; conditions: estimated by network meta-analysis
Text: Methods: This modelling analysis simulated a cohort representing patients in the EDITION 2 and 3 trials using the IMS Core Diabetes Model with a time horizon of 50 years (lifetime) for 1,000,000 patients starting at 62 years old. […] The treatment cost was $1,561 per SHE and $13.65 per NSHE (2015 $). Utilities to estimate quality-adjusted life years (QALYs) for multiple comorbidities were applied using the minimum utility approach. A disutility of -0.0118 was applied for SHE, and method of diminishing marginal disutility for NSHE.

[4] = tested on: inpatient population with diabetes; assay: Degludeca vs NPH, both with Regular Insulin, in hospital (8 patients per group); conditions: human, in vivo
Procedure: Methods: We conducted a retrospective, randomized study to compare the efficacy and safety of different basal insulin (Degludeca versus NPH), both on Basal-bolus insulin regimen on inpatient population with diabetes. Data were collected from the medical records, between May, 2016 until April, 2017. 8 patients were selected and randomized in each group. We established optimal glycemic control for patients with capillary glucose below 140 mg/dl in fasting and before main meals and below 180 mg/dL for 2 h after main meals. The criteria for excellent glycemic control was to achieve at least 70% within the previously established target and for acceptable glycemic control, those patients who had between 60% and 69% of the glycemia within the established target. The total number of hypoglycemia was assessed and classified as severe hypoglycemia (< 40 mg/dl) and mild hypoglycemia (< 70 mg/dl) as well as nocturnal hypoglycemia. In addition, the time required to achieve excellent or acceptable glycemic control was also analyzed.

[5] = tested on: elderly patients with T2DM; assay: Pilot randomized trial Ideg vs Iglar-U100 with CGM; assay type: in vivo, human
Procedure: Methods: It is a pilot study with ten patients during six weeks, randomized, prospective, controlled and open label trial. Inclusion criteria: T2DM, age over 60 years, A1C from 7 to 10%, use of NPH insulin with or without oral antidiabetic drugs. […] They were evaluated for glucose variability (GV) and HYPOs by continuous glucose monitoring (CGM) after 2 weeks of treatment with either insulin.

child with CGL type 2 = assay: Case report: high doses of insulin in congenital generalized lipodystrophy; assay type: in vivo, human
Procedure: Case: Child with clinical diagnosis of CGL type 2 and diagnosis of diabetes for 1 year. Using Glargina and Lispro insulin basal/bolus (5.1 IU/kg/day) presented mean daily capillary glycemia above 600 mg/dl, associated with irritability, low weight and voracious appetite. Interned for intravenous insulin therapy and nutritional adjustment with standardized diet of 1600 kcal/day fractionated in 7 meals. Initiated continuous infusion of regular insulin (RI), 6.1UI/kg/day. […] Subsequently, it was modified to intramuscular administration, in 5 application times, without differences in glycemic averages. On the 36 th day, Degludeca insulin was introduced (9.3 IU/kg/day) associated with RI (18.2 U/kg/day), evolving within the first 24 h with improved glycemia (180 ± 42 mg/dl). […] After approximately fivefold increase in the initial insulin dose, there was improvement in glycemia, irritability, weight gain and decreased appetite.

type 2 diabetic patient = assay: Case report: liraglutide added to insulin degludec and metformin; assay type: in vivo, human; conditions: 30 days of Insulin Degludec 16U with metformin
Procedure: patient one, type 2 diabetic for 3 years, using Gliclazide 60 mg/day and Metformin 1500 mg/day. They reported asthenia and difficulty losing weight. […] To optimize patient glycemic control and weight loss, Liraglutide 1.2 mg/day was initiated. […] The insulin dose was reduced to 10 U and reassessed in 30 days for possible discontinuation of insulin therapy. GLP- 1 receptor agonists stimulate insulin secretion in a […] manner, inhibit glucagon secretion and hepatic glucose output, delay gastric emptying, induce satiety, reduce appetite, and cause weight loss. […] It is a therapeutic option with action well established in weight loss, metabolic and glycemic improvement in the DM2 patient. However, its action on HbA1C reduction was independent of weight loss, evidencing intensive glycemic control with HbA1C between 6.5 and 7.0% even with discrete or even absent weight loss.

[6] = tested on: patients with DM 1 and DRIASM; assay: Case reports: IDeg in resistance to subcutaneous and intramuscular insulin (DRIASM); assay type: in vivo, human; conditions: patient 1; IDeg since December 2015
Procedure: It was suspected of diabetes mellitus with resistance to insulin administered subcutaneously or intramuscularly (DRIASM). […] After that it was decided to perform a therapeutic test with IDeg. […] They remained in use of IDeg 80 UI/d and lispro 600 UI/d. […] An insulin challenge test was performed with SC and IM NPH/Glargina/Detemir and IV regular insulin. […] They remained in use of IDeg 80 UI/d and aspart 2000 UI/d.

patient with DRIASM = assay: Insulin degludec in DRIASM, case report; assay type: in vivo, human
Text: Discussion: DRIASM is a rare syndrome, characterized by extreme resistance to SC and IM insulin, whose pathophysiology remains unknown. There are few treatments available and most are ineffective. The use of intraperitoneal insulin pump is the therapy with the best result so far, but it is not available in Brazil. Another possibility is the PTA, initially proposed by our group and then performed in other countries. […] After SC injection, the di-hexamers form a stable depot of multi-hexamer chains, with gradual dissociation of these chains into absorbed monomers.

T1D patients < 18 years = assay: Real-world clinical follow-up of T1D patients < 18 years switched to insulin degludec; assay type: in vivo, human; conditions: n = 9
Text: Information about HbA1c, insulin dose, weight and frequency of hypoglycaemia (self-reported by patients/parents) were collected in every consultant.

participants with T1DM = assay: Multiple-dosing crossover euglycemic glucose clamp study, steady-state PK/PD; assay type: in vivo, human
Text: For both insulins, participants received 0.4 (n = 24) or 0.6 U/kg/day (n = 24) at ~ 8 am for 8 days. Main endpoint: within-day variability (fluctuation) of smoothed glucose infusion rate (GIR) over a 24-h dosing period (GIR-smFL0-24). […] This is an ENCORE abstract previously presented at ADA2017. Funding and editorial support provided by Sanofi (Fig. 1)

[7] = tested on: adults with T2D using basal insulin; assay: DELIVER2 real-world study, switch of basal insulin; assay type: in vivo, human; conditions: PS matched
Procedure: Methods: DELIVER2 used data from Predictive Health Intelligence Environment database of medical records representing 37 integrated delivery networks. […] The endpoints were A1C change from baseline, incidence and event rate of hypoglycemia (hypo) (identified by ICD-9/ICD-10 and/or plasma glucose level ≤ 70 mg/dL), and HCU (incidence and event rate of all-cause, diabetes-, and hypo-related visits) within 6 m.

[8] = tested on: T2D pts aged ≥ 65 years on basal insulin; assay: DELIVER 3 retrospective real-world study; assay type: in vivo, human
Procedure: Older patients (pts) with T2D are disproportionately impacted by treatment-related hypoglycemia and its adverse consequences. […] Pts had ≥ 12 months (mo) of baseline data and ≥ 6 mo of follow-up data. The effect of cohort on A1C reduction, hypoglycemia incidence/event rate, and achievement of A1C goal at 6 mo were assessed by generalized linear models or logistic regression models with adjustment for baseline characteristics. […] This is an ENCORE abstract previously presented at ADA2017. Funding and editorial support provided by Sanofi.

[9] = tested on: T2DM pts uncontrolled on BOT with other BI; assay: TOP-2 prospective observational study, 6 month interim analysis; assay type: in vivo, human
Procedure: Adult pts currently on a BOT with an indication for changing their insulin therapy due to non-achievement of glycemic targets (A1c 7.5–10.0%) are enrolled. Primary endpoint (EP) is the rate of pts achieving a fasting plasma glucose (FPG) ≤ 110 mg/dL after 6 and 12 months, respectively. Secondary EPs include change in A1c, FPG, body weight (BW) and insulin dose, hypoglycemia incidence and safety. Here we report on an interim analysis including all German pts, for whom 6 month results were available 15 months after study start (n = 661). […] Less pts experienced nocturnal hypoglycemia (0.5% vs 1.2%). […] Final results are expected for 2018 (Fig. 1)

## CC(C)(c1ccc(O)cc1)c1ccc(O)cc1 [BPA, Bisphenol-A]
OVX female Swiss mice; 15 min, HFD 444 ± 13
  glycemia in GTT: 427 ± 17 mg/dL
OVX female Swiss mice; 30 min, HFD 453 ± 23
  glycemia in GTT: 450 ± 22 mg/dL
[1]
  insulin secretion: 1.8 ± 0.2 ng/islet h

## CN(C)C(=N)N=C(N)N [D + PA + MTF, metformin]
Diabetic pregnant women
  pregnant women with adverse perinatal outcomes / women in group: 5/12

## C[C@@H](O)[C@@H]1NC(=O)[C@H](CCCCN)NC(=O)[C@@H](Cc2c[nH]c3ccccc23)NC(=O)[C@H](Cc2ccccc2)NC(=O)[C@@H](NC(=O)[C@H](N)Cc2ccccc2)CSSC[C@@H](C(=O)N[C@H](CO)[C@@H](C)O)NC1=O [Octreotide]
Patient with glucagonoma
  skin lesions (necrolytic migratory erythema): effective in reducing the number and extent of lesions

## C[C@@H]1[C@H](O)[C@@H](C)/C=C/C=C/C=C/C=C/C=C/C=C/C=C/[C@H](O[C@@H]2O[C@H](C)[C@@H](O)[C@H](N)[C@@H]2O)C[C@@H]2O[C@](O)(C[C@@H](O)C[C@@H](O)[C@H](O)CC[C@@H](O)C[C@@H](O)CC(=O)O[C@H]1C)C[C@H](O)[C@H]2C(=O)O [amphotericin B]
[2]
  clinical response: favorable response

## COc1ccc(Cl)cc1C(=O)NCCc1ccc(S(=O)(=O)NC(=O)NC2CCCCC2)cc1 [sulfonylurea, glibenclamide]
[3]
  patients with positive response (C-peptide > 200 pmol/L): 66.7%

## insulin degludec [IDeg]
Patients with T2D
  A1C reduction over 24 weeks: 0.98%
[4]
  time to achieve excellent glycemic control, average: 4 days
[5]; CGM after 2 weeks, n = 5 per group, P = 0.84
  24-h mean glucose, median (minimum–maximum): 168 (151–206) mg/dL
[5]; CGM, P = 0.22
  standard deviation from the mean glucose, median (minimum–maximum): 69 (42– 83)
Child with CGL type 2; after the first 24 h of Degludeca with RI
  blood glucose level: 232.6 ± 74.7 mg/dL
Child with CGL type 2; first 24 h of Degludeca 9.3 IU/kg/day with RI 18.2 U/kg/day
  glycemia: 180 ± 42 mg/dL
Type 2 diabetic patient
  fasting glycemia (GJ): 171 mg/dL
Type 2 diabetic patient; […] before
  HbA1c: 8.2%
[6]
  hospitalizations due to DKA: reduction of hospitalizations
Patient with DRIASM; case report, extreme resistance to SC and IM insulin
  treatment of DRIASM: effective in the treatment of DRIASM, with reduction in hospital admissions and DKA episodes
Patient with DRIASM; differently from all previously basal insulins
  absorption and plasma glucose in test: able to be absorbed and to reduce plasma glucose
T1D patients < 18 years
  Median HbA1c at 6 months after switch: 7.52%
T1D patients < 18 years; on previous basal insulin or CSII
  Median HbA1c before switch: 8.17%

## insulin glargine [Gla-300]
Patients with T2D
  A1C reduction over 24 weeks: 1.00%
Participants with T1DM; 0.4 U/kg/day once daily ~8 am for 8 days, steady state, n = 24, p = 0.047
  Within-day GIR variability (GIR-smFL0-24), lower vs. Deg-100: 20%
Participants with T1DM; 0.6 U/kg/day, n = 24
  Within-day GIR variability (GIR-smFL0-24) vs. Deg-100: comparable
[7]
  A1C during 6 m follow-up: 8.40%
[7]; 1827 pts per group
  Mean baseline A1C: 8.95%
[8]; 95% CI 0.581, 1.098, P = 0.166
  achieved A1C < 7.0%, OR vs. other basal insulins: 0.798
[8]; 95% CI 0.749, 1.248, P = 0.797
  achieved A1C < 8.0%, OR vs. other basal insulins: 0.967
[9]; n = 661
  mean (± SD) A1c before switching: 8.21 ± 0.8%
[9]; six months after switching to Gla-300
  HbA1c, TOP-2 FAS 6 month [mean±SD]: 7.67 ± 1.0%
